PubChem BioAssay AID651817 (Broad Institute, 2012)
Activity calls are given as the source filed them.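 The calls were made as follows: active = compound whose fitted luminescence drop, meaning cytotoxicity, reaches half effect at most twice its top valid tested dose; inconclusive = flat curve with a moderate drop, or an unreliable fit; inactive = rise instead of drop, flat response, or weaker potency.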

Experiment: mouse fibroblast viability loss – cell-based, cherry-pick samples, set 2, cytotoxicity control for T. cruzi growth inhibitor project, dose response (AID 651817)
Details: NIH/3T3 viability, ATP luminescence (CellTiter-Glo), 90 h; at 3.8 µM (top of the series)

SMILES	activity change, negative = cytotoxicity
Cc1ccc(S(=O)(=O)Nc2ccc3c(c2)CC(=O)N([C@H](C)CO)C[C@@H](C)[C@H](CN(C)Cc2ccc(Cl)c(Cl)c2)O3)cc1	33.6% (inactive)

Same assay, conditions: NIH/3T3 viability, ATP luminescence (CellTiter-Glo), 90 h; at 4.2 µM (top of the series)

SMILES	activity change, negative = cytotoxicity
COc1ccc(CN(C)C[C@H]2Oc3c(NC(=O)Nc4ccc(C(F)(F)F)cc4)cccc3C(=O)N([C@H](C)CO)C[C@H]2C)cc1	6.55% (inactive)

Same assay, conditions: NIH/3T3 viability, ATP luminescence (CellTiter-Glo), 90 h; at 19.5 µM (top of the series)

SMILES	activity change, negative = cytotoxicity
C[C@@H]1CN([C@@H](C)CO)C(=O)c2cccc(NC(=O)c3ccncc3)c2O[C@@H]1CN(C)Cc1ccc(-c2ccccc2)cc1	19.3% (inactive)
C[C@@H]1CN([C@@H](C)CO)C(=O)c2cccc(NC(=O)c3ccncc3)c2O[C@@H]1CN(C)CC1CCCCC1	15.4% (inactive)
Cc1ccc(S(=O)(=O)N(C)C[C@H]2Oc3c(NC(=O)c4nc5ccccc5s4)cccc3C(=O)N([C@@H](C)CO)C[C@@H]2C)cc1	-1.47% (inactive)
Cc1noc(C)c1NC(=O)Nc1cccc2c1O[C@@H](CN(C)S(C)(=O)=O)[C@H](C)CN([C@H](C)CO)C2=O	-6.79% (inactive)
Cc1ccc(S(=O)(=O)Nc2ccc3c(c2)CC(=O)N([C@H](C)CO)C[C@@H](C)[C@H](CN(C)Cc2ccc4c(c2)OCO4)O3)cc1	11% (inactive)
C[C@H]1CN([C@@H](C)CO)C(=O)c2cccc(NC(=O)c3nc4ccccc4s3)c2O[C@H]1CN(C)Cc1ccc2c(c1)OCO2	-36.3% (inactive)
Cc1noc(C)c1NC(=O)Nc1cccc2c1O[C@@H](CN(C)S(C)(=O)=O)[C@@H](C)CN([C@@H](C)CO)C2=O	-35% (inactive)
C[C@@H]1CN([C@@H](C)CO)C(=O)c2cccc(NC(=O)NC3CCCCC3)c2O[C@@H]1CN(C)S(=O)(=O)c1ccc(F)cc1	21.4% (inactive)
C[C@H]1CN([C@@H](C)CO)C(=O)c2cccc(NC(=O)c3ccncc3)c2O[C@H]1CN(C)Cc1ccc(Cl)c(Cl)c1	-14.4% (inactive)
Cc1ccc(S(=O)(=O)Nc2ccc3c(c2)CC(=O)N([C@@H](C)CO)C[C@@H](C)[C@@H](CN(C)Cc2ccccc2)O3)cc1	-13.8% (inactive)
C[C@@H]1CN([C@H](C)CO)C(=O)Cc2cc(NS(=O)(=O)c3ccccc3)ccc2O[C@@H]1CN(C)S(=O)(=O)c1ccc(Cl)cc1	-10.7% (inactive)
C[C@@H]1CN([C@H](C)CO)C(=O)Cc2cc(NS(=O)(=O)c3ccc(F)cc3)ccc2O[C@@H]1CN(C)Cc1ccc(Cl)c(Cl)c1	-49.8% (inactive)
C[C@H](CO)N1C[C@H](C)[C@H](CN(C)S(=O)(=O)c2ccc(F)cc2)Oc2c(NC(=O)NC3CCCCC3)cccc2C1=O	-54.5% (inactive)
C[C@H](CO)N1C[C@H](C)[C@@H](CN(C)S(=O)(=O)c2ccc(Cl)cc2)Oc2c(NC(=O)c3nc4ccccc4s3)cccc2C1=O	14.7% (inactive)
C[C@@H]1CN([C@@H](C)CO)C(=O)c2cccc(NC(=O)c3nc4ccccc4s3)c2O[C@@H]1CN(C)S(=O)(=O)c1ccccc1	-7.14% (inactive)
C[C@@H]1CN([C@H](C)CO)C(=O)c2cccc(NC(=O)c3nc4ccccc4s3)c2O[C@H]1CN(C)Cc1ccc2c(c1)OCO2	-10.9% (inactive)
C[C@@H]1CN([C@@H](C)CO)C(=O)c2cccc(NC(=O)c3ccncc3)c2O[C@@H]1CN(C)Cc1ccc(C(F)(F)F)cc1	-16.7% (inactive)

SMILES	activity change, negative = cytotoxicity
C[C@@H]1CN([C@H](C)CO)C(=O)c2cccc(NC(=O)c3ccncc3)c2O[C@@H]1CN(C)Cc1ccc(Cl)c(Cl)c1	-9.65% (inactive)
Cc1ccc(S(=O)(=O)N(C)C[C@@H]2Oc3ccc(NS(=O)(=O)c4ccccc4)cc3CC(=O)N([C@@H](C)CO)C[C@@H]2C)cc1	9.31% (inactive)
C[C@@H]1CN([C@H](C)CO)C(=O)c2cccc(NC(=O)c3ccncc3)c2O[C@@H]1CN(C)Cc1ccc(-c2ccccc2)cc1	6.2% (inactive)
C[C@@H]1CN([C@H](C)CO)C(=O)c2cccc(NC(=O)NC3CCCCC3)c2O[C@H]1CN(C)S(=O)(=O)c1ccc(F)cc1	1.29% (inactive)
C[C@@H]1CN([C@@H](C)CO)C(=O)c2cccc(NC(=O)c3ccncc3)c2O[C@H]1CN(C)Cc1ccc(C(F)(F)F)cc1	0.884% (inactive)
C[C@H]1CN([C@@H](C)CO)C(=O)Cc2cc(NS(=O)(=O)c3ccccc3)ccc2O[C@H]1CN(C)S(=O)(=O)c1ccc(Cl)cc1	-30.3% (inactive)
C[C@H]1CN([C@@H](C)CO)C(=O)Cc2cc(NS(=O)(=O)c3ccccc3)ccc2O[C@@H]1CN(C)S(=O)(=O)c1ccc(Cl)cc1	-7.84% (inactive)
COc1ccc(CN(C)C[C@@H]2Oc3c(NC(=O)Nc4ccc(C(F)(F)F)cc4)cccc3C(=O)N([C@H](C)CO)C[C@@H]2C)cc1	-21.3% (inactive)
Cc1noc(C)c1NC(=O)Nc1cccc2c1O[C@H](CN(C)S(C)(=O)=O)[C@@H](C)CN([C@H](C)CO)C2=O	2.45% (inactive)
Cc1ccc(S(=O)(=O)Nc2ccc3c(c2)CC(=O)N([C@H](C)CO)C[C@H](C)[C@@H](CN(C)S(=O)(=O)c2ccc(Cl)cc2)O3)cc1	-14.6% (inactive)
COc1ccc(S(=O)(=O)Nc2ccc3c(c2)CC(=O)N([C@H](C)CO)C[C@@H](C)[C@H](CN(C)Cc2ccc4c(c2)OCO4)O3)cc1	4.02% (inactive)
C[C@@H]1CN([C@H](C)CO)C(=O)c2cccc(NC(=O)c3ccncc3)c2O[C@@H]1CN(C)CC1CCCCC1	29% (inactive)
C[C@@H]1CN([C@H](C)CO)C(=O)c2cccc(NC(=O)c3ccncc3)c2O[C@H]1CN(C)Cc1ccccc1	9% (inactive)
C[C@@H]1CN([C@@H](C)CO)C(=O)c2cccc(NC(=O)c3nc4ccccc4s3)c2O[C@H]1CN(C)S(=O)(=O)c1ccc(Cl)cc1	-6.73% (inactive)
C[C@@H]1CN([C@@H](C)CO)C(=O)c2cccc(NC(=O)c3nc4ccccc4s3)c2O[C@H]1CN(C)Cc1ccc2c(c1)OCO2	-20.2% (inactive)
C[C@@H]1CN([C@H](C)CO)C(=O)c2cccc(NC(=O)NC3CCCCC3)c2O[C@@H]1CN(C)S(=O)(=O)c1ccc(F)cc1	18.6% (inactive)

Same assay, conditions: NIH/3T3 viability, ATP luminescence (CellTiter-Glo), 90 h; at 21 µM (top of the series)

SMILES	activity change, negative = cytotoxicity
Cc1ccc(S(=O)(=O)N(C)C[C@@H]2Oc3ccc(NS(=O)(=O)c4ccc(Cl)cc4)cc3CC(=O)N([C@@H](C)CO)C[C@@H]2C)cc1	11.5% (inactive)
Cc1ccc(S(=O)(=O)N(C)C[C@H]2Oc3ccc(NS(=O)(=O)c4ccccc4)cc3CC(=O)N([C@@H](C)CO)C[C@H]2C)cc1	-30.2% (inactive)
Cc1ccc(S(=O)(=O)Nc2ccc3c(c2)CC(=O)N([C@@H](C)CO)C[C@H](C)[C@@H](CN(C)S(=O)(=O)c2ccc(Cl)cc2)O3)cc1	11.7% (inactive)
C[C@H]1CN([C@@H](C)CO)C(=O)Cc2cc(NS(=O)(=O)c3ccc(F)cc3)ccc2O[C@@H]1CN(C)Cc1ccc(Cl)c(Cl)c1	-12.6% (inactive)
Cc1ccc(S(=O)(=O)N(C)C[C@@H]2Oc3ccc(NS(=O)(=O)c4ccc(Cl)cc4)cc3CC(=O)N([C@H](C)CO)C[C@@H]2C)cc1	-5.69% (inactive)
